Test results as given in patent publication US20160038235A1, “INGENOL MEBUTATE IN COMBINATION WITH LASER THERAPY FOR THE TREATMENT OF HYPE[…] LESIONS” (LEO LABORATORIES LIMITED, priority 2013, published 2016).

Assay: Penetration of ingenol mebutate in static in vitro Franz cell model after fractional Er:YAG laser pre-treatment
Type: in vitro ADME, porcine
Design: Uptake: unit not given here
Settings: for Uptake: 21 h
Method: Penetration of Ingenol mebutate was investigated in a static in vitro Franz cell model, using porcine skin. Prior to ingenol mebutate application, the skin was pre-treated with a fractional 2940 Er:YAG laser. Two settings were used based on pulse durations at 125 or 225 μs, and power at 1.3 or 1.7 W, delivering total energies per laser channel at 11 or 128 mJ, respectively. The settings were investigated at 1, 5 and 10% densities. The shape and depth of the micropores were evaluated in a dissecting microscope. After 21 h in the Franz cells, stratum corneum was tape stripped and liquid chromatography-mass spectrometry (LC-MS) was used to analyze IngMeb concentrations in stratum corneum, skin and receptor fluid.

C/C=C(/C)C(=O)O[C@H]1C(C)=C[C@]23C(=O)[C@@H](C=C(CO)[C@@H](O)[C@]12O)[C@H]1[C@@H](C[C@H]3C)C1(C)C [ingenol mebutate]
Uptake (1—No Laser, Dermis): 508 | Uptake (1—No Laser, Epidermis): 606 | Uptake (1—No Laser, Receiver): 0 | Uptake (1—No Laser, SC): 708 | Enhancement Factor (1—No Laser, Viable skin (reference)): 1 | Uptake (1—No Laser, Viable skin): 1114 | Uptake (2—Superficial 1% (approx. 50 μm micropores), Viable skin): 1340 | Uptake (2—Superficial 1%, Dermis): 843 | Uptake (2—Superficial 1%, Epidermis): 558 | Uptake (2—Superficial 1%, Receiver): 122 | Uptake (2—Superficial 1%, SC): 603 | Enhancement Factor (2—Superficial 1%, Viable skin, vs No laser): 1.20 | Uptake (3—Superficial 5%, Dermis): 1584 | Uptake (3—Superficial 5%, Epidermis): 568 | Uptake (3—Superficial 5%, Receiver): 408 | Uptake (3—Superficial 5%, SC): 135 | Uptake (3—Superficial 5%, Viable skin): 2152 | Enhancement Factor (3—Superficial 5%, Viable skin, vs No laser): 1.93 | Uptake (4—Superficial 10%, Dermis): 1801 | Uptake (4—Superficial 10%, Epidermis): 388 | Uptake (4—Superficial 10%, Receiver): 547 | Uptake (4—Superficial 10%, SC): 59 | Uptake (4—Superficial 10%, Viable skin): 2189 | Enhancement Factor (4—Superficial 10%, Viable skin, vs No laser): 1.97 | Uptake (5—Mid-Dermal-1% (approx. 500 μm micropores), Viable skin): 1510 | Uptake (5—Mid-Dermal-1%, Dermis): 1076 | Uptake (5—Mid-Dermal-1%, Epidermis): 366 | Uptake (5—Mid-Dermal-1%, Receiver): 304 | Uptake (5—Mid-Dermal-1%, SC): 369 | Enhancement Factor (5—Mid-Dermal-1%, Viable skin, vs No laser): 1.35 | Uptake (6—Mid-Dermal 5%, Dermis): 1744 | Uptake (6—Mid-Dermal 5%, Epidermis): 386 | Uptake (6—Mid-Dermal 5%, Receiver): 677 | Uptake (6—Mid-Dermal 5%, SC): 127 | Uptake (6—Mid-Dermal 5%, Viable skin): 2126 | Enhancement Factor (6—Mid-Dermal 5%, Viable skin, vs No laser): 1.91 | Uptake (7—Mid-Dermal 10%, Dermis): 1986 | Uptake (7—Mid-Dermal 10%, Epidermis): 260 | Uptake (7—Mid-Dermal 10%, Receiver): 622 | Uptake (7—Mid-Dermal 10%, SC): 9 | Uptake (7—Mid-Dermal 10%, Viable skin): 2224 | Enhancement Factor (7—Mid-Dermal 10%, Viable skin, vs No laser): 2.00 | accumulation in the epidermis, laser compared with no laser pre-treatment (10% density at 50 μm micropores, all densities at 500 μm micropores): decreased ingenol mebutate in the epidermis | accumulation in stratum corneum (SC), laser pre-treatment compared with no laser pre-treatment (50 μm and 500 μm micropores, decreasing with increasing density): less ingenol mebutate was accumulated | increase in ingenol mebutate in the dermis with laser pre-treatment compared with no laser pre-treatment (density dependent (1-10%)): 1.7-3.9 fold | dermis uptake, 10% density compared with 5%, and 500 μm compared with 50 μm micropores (laser pre-treatment): no added benefit was observed | improved uptake in the epidermis relative to uptake without use of the laser (maximum): ≤ 4 times | delivery of ingenol mebutate to dermis, increase following laser pre-treatment compared to no laser pre-treatment (maximum increase): ≤ 4 fold
